The values below come from patent US9040506B2, “7,11-methanocycloocta [B] quinoline derivative as highly functionalizable acetylcholinesterase inhibitors” (priority 2010, dated 2015).

Read-outs that look alike come from different tables or passages of the source.

The target in assay [1] is rh-AChE (Homo sapiens, UniProt P22303). Put plainly: biochemical. The note with it: read-out: IC50 rh-AChE.
In assay [2] the target is T1, erythrocyte h-AChE (Homo sapiens, UniProt P22303).
T1 construct: from tissue; host or cells: human erythrocytes
Nature of the assay: IC50 erythrocyte h-AChE. Type of assay: biochemical.

Assay [3] deals with rh-BuChE (Homo sapiens, UniProt P06276). Put plainly: IC50 rh-BuChE. Type of assay: biochemical.
Assay [4] addresses T2, AChE (Homo sapiens, UniProt P22303). Put plainly: AChE inhibition, general statements. It is filed as biochemical.
The target in assay [5] is T2, AChE. The following applies: Camps et al.; cited from earlier work.
Where [6] appears, read: read-out: IC50 erythrocyte h-AChE.

Chain of rh-BuChE (P06276 29-602): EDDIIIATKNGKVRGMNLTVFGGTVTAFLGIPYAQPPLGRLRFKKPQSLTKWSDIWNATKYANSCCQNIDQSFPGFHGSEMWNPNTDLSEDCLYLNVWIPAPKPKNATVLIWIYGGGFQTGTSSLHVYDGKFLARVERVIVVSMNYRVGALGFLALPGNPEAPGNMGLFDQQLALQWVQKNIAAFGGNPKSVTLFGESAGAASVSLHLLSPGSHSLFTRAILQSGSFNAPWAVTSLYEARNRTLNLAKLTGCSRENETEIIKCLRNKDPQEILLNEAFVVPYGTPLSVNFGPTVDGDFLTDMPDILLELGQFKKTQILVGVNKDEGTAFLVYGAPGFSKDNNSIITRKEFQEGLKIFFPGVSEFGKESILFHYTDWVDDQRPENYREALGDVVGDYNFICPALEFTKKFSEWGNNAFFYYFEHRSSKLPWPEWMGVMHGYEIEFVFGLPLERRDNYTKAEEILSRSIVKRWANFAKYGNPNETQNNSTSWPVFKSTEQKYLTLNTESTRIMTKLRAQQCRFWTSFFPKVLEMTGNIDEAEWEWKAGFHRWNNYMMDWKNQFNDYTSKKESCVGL
T1 sequence (P22303 32-617 isoform P22303-2 limits assumed): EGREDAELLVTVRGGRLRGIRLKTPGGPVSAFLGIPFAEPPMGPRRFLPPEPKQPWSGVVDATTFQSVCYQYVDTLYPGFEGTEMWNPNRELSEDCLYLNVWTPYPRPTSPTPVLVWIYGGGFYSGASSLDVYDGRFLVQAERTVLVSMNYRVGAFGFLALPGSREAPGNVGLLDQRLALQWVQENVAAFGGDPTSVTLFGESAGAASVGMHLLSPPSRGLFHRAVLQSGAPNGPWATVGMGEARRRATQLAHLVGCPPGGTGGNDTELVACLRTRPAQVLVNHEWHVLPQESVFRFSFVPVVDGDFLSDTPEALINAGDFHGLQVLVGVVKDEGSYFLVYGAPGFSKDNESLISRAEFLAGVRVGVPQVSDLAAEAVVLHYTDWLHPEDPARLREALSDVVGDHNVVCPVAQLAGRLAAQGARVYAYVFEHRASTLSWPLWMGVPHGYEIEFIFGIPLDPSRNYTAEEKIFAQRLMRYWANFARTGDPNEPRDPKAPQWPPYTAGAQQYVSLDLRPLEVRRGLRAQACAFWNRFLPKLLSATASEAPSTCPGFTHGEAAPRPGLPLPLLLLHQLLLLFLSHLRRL
Chain of rh-AChE (P22303 32-614): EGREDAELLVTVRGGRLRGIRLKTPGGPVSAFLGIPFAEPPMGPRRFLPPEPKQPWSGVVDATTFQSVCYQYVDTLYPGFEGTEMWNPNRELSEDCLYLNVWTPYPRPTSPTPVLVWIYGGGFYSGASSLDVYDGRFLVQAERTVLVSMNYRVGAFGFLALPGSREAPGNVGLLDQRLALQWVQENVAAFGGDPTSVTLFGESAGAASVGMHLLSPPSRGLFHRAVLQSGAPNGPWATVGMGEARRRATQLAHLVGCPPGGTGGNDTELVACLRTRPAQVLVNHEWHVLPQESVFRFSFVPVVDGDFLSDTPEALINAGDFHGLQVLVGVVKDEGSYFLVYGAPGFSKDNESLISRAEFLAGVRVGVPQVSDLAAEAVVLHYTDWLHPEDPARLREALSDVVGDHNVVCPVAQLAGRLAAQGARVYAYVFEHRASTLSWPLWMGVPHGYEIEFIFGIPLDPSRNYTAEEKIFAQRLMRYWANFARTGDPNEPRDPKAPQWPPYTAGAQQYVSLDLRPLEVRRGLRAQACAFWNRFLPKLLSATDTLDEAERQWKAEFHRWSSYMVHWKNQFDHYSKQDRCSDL
T2 sequence (P22303 32-614): as above

`Nc1c2c(nc3cc(Cl)ccc13)CC1C=C(CCO)CC2C1` (centres unmarked) [HUP 2, 2-(12-Amino-3-chloro-6,7,10,11-tetrahydro-7,11-methanocycloocta[b]quinolin-9-yl) Ethanol]: the results for the IC50 in assay [1], in assay [2] (setting [6]) and in assay [3] (read-out: IC50 rh-BuChE) were 0.00105 ± 0.00013 µM, 0.00615 µM and 1.24 µM, respectively. Moreover, in assay [4], the “activity compared with Huprine X” value is “as high as the Huprine X”.

Regarding `COCCC1=CC2Cc3nc4cc(Cl)ccc4c(N)c3C(C1)C2` (centres unmarked) [HUP 6, 3-Chloro-9-(2-methoxyethyl)-6,7,10,11-tetrahydro-7,11-methanocycloocta[b]quinolin-12-amine], the IC50 in assay [1] stood at 0.00175 ± 0.00021 µM; in assay [2] (setting [6]), 0.0045 µM; in assay [3] (read-out: IC50 rh-BuChE) it was 0.401 ± 0.026 µM.

As for `Nc1c2c(nc3cc(Cl)ccc13)CC1C=C(CCCl)CC2C1` (centres unmarked) [HUP 9, 3-Chloro-9-(2-chloroethyl)-6,7,10,11-tetrahydro-7,11-methanocycloocta[b]quinolin-12-amine Trifluoroacetic Acid], the IC50 in assay [1] turned out to be 0.00356 ± 0.0002 µM; in assay [2] (setting [6]), 0.00509 µM; in assay [3] (read-out: IC50 rh-BuChE), 0.207 ± 0.012 µM.

As for `C=CC(=O)OCCC1=CC2Cc3nc4cc(Cl)ccc4c(N)c3C(C1)C2` (centres unmarked) [HUP 18, 2-(12-Amino-3-chloro-6,7,10,11-tetrahydro-7,11-methanocycloocta[b]quinolin-9-yl)ethyl Acrylate], the IC50 amounted to 0.0204 ± 0.0046 µM in assay [1], 0.129 µM in assay [2] (setting [6]) and 0.207 ± 0.016 µM in assay [3] (read-out: IC50 rh-BuChE).

For the compound `CCOC(=O)C(CCC1=CC2Cc3nc4cc(Cl)ccc4c(N)c3C(C1)C2)C(=O)OCC` (centres unmarked) [HUP 27, Diethyl[2-(12-Amino-3-chloro-6,7,10,11-tetrahydro-7,11-methanocycloocta[b]quinolin-9-yl)ethyl]malonate], the IC50 in assay [1] worked out at 0.00609 ± 0.00042 µM; in assay [2], 0.0464 µM; in assay [3], 0.319 ± 0.002 µM.

`COC(=O)CCCC1=CC2Cc3nc4cc(Cl)ccc4c(N)c3C(C1)C2` (centres unmarked) [HUP 29, Methyl 4-(12-Amino-3-chloro-6,7,10,11-tetrahydro-7,11-methanocycloocta[b]quinolin-9-yl)butanoate]: the IC50 worked out at 0.0146 ± 0.0017 µM in assay [1], 0.0376 µM in assay [2] and 0.124 ± 0.011 µM in assay [3].

Consider `Nc1c2c(nc3cc(Cl)ccc13)CC1C=C(CCCCO)CC2C1` (centres unmarked) [HUP 30, 4-(12-Amino-3-chloro-6,7,10,11-tetrahydro-7,11-methanocycloocta[b]quinolin-9-yl)butan-1-ol], for which the IC50 in assay [1] stood at 0.0224 ± 0.0015 µM; in assay [2] (setting [6]), 0.0501 µM; in assay [3] (read-out: IC50 rh-BuChE), 0.343 ± 0.043 µM.

For `CS(=O)(=O)OCCCCC1=CC2Cc3nc4cc(Cl)ccc4c(N)c3C(C1)C2` (centres unmarked) [HUP 31, 4-(12-Amino-3-chloro-6,7,10,11-tetrahydro-7,11-methanocycloocta[b]quinolin-9-yl)butyl Methanesulfonate], the figures for the IC50 in assay [1], in assay [2] (setting [6]) and in assay [3] (read-out: IC50 rh-BuChE) were 0.00476 ± 0.00168 µM, 0.0133 µM and 0.243 ± 0.012 µM, respectively.

Turning to `[N-]=[N+]=NCCCCC1=CC2Cc3nc4cc(Cl)ccc4c(N)c3C(C1)C2` (centres unmarked) [HUP 32, 9-(4-Azidobutyl)-3-chloro-6,7,10,11-tetrahydro-7,11-methanocycloocta[b]quinolin-12-amine], the IC50 was 0.0131 ± 0.0047 µM in assay [1], 0.0681 µM in assay [2] (setting [6]) and 0.26 ± 0.012 µM in assay [3] (read-out: IC50 rh-BuChE).

Turning to `COC(=O)c1cn(CCCCC2=CC3Cc4nc5cc(Cl)ccc5c(N)c4C(C2)C3)nn1` (centres unmarked) [HUP 33, Methyl 1-[4-(12-Amino-3-chloro-6,7,10,11-tetrahydro-7,11-methanocycloocta[b]quinolin-9-yl)butyl]-1H-1,2,3-triazole-4-carboxylate], the IC50 in assay [1] was determined as 0.00034 ± 0.00012 µM; in assay [2] (setting [6]), 0.0107 µM; in assay [3] (read-out: IC50 rh-BuChE), 0.291 ± 0.025 µM.

On to `Nc1c2c(nc3cc(Cl)ccc13)CC1C=C(CCCCn3cc(CO)nn3)CC2C1` (centres unmarked) [HUP 34, {1-[4-(12-Amino-3-chloro-6,7,10,11-tetrahydro-7,11-methanocycloocta[b]quinolin-9-yl)butyl]-1H-1,2,3-triazol-4-yl}methanol Trifluoroacetic Acid], for which the IC50 stood at 0.00026 ± 8e-05 µM in assay [1], 0.00691 µM in assay [2] (setting [6]) and 0.213 ± 0.018 µM in assay [3] (read-out: IC50 rh-BuChE).

In the case of `CCC1=CC2Cc3nc4cc(Cl)ccc4c(N)c3[C@@H](C1)C2` [Huprine X], the 50% inhibitory concentration (IC50) in assay [5] is roughly 0.001 µM.
